Assay results from patent US9347013B2, “Natural oil derivative based thickener components used in grease compositions and processes for making such compositions” (Elevance Renewable Sciences, Inc., priority 2014, dated 2016).

Columns and labels:
[1] = Log P (oil solubility) of grease complexing agents; conditions: more oil soluble than azelaic acid

Compound	logP (physchem)	oil solubility relative to azelaic acid [1]
O=C(O)CCCCCCCC(=O)O [Azelaic (C9), azelaic acid, reference compound]	2.01	
O=C(O)CCCCCCCCCCCCCCCCC(=O)O [ERS ODDA (C18), octadecanedioic acid]	3	about 1.5 times
